Reference: EPA's ToxValDB 9.5 (doi:10.2903/j.efsa.2007.106r)
Converted amounts (≈) assume the structure as drawn. “And” between values parts separate entries of the source, which are not always exact repeats. Equal values may be shown once.

How the values were obtained:
Colinus virginianus = conditions: for NOEL / NOEC: reproduction developmental
Rattus norvegicus = conditions: for LD50: acute, oral, mortality
Anas platyrhynchos = conditions: for NOEL / NOEC: reproductive
Typhlodromus pyri = assay: LR50; higher = less toxic; conditions: not reported; mortality
Aphidius rhopalosiphi = assay: LR50; higher = less toxic; conditions: chronic/long-term; mortality
Mus musculus = conditions: acute, oral, mortality
Bibionidae = conditions: chronic/long-term
Apis mellifera = conditions: acute, mortality
Daphnia magna = conditions: chronic/long-term
Canidae = conditions: chronic; duration: 1 years; Dog Other; clinical chemistry
Folsomia candida = conditions: chronic/long-term
[1] = acute, duration: 5 days, oral, diet, mortality

OC(Cc1ccccc1Cl)(Cn1cncn1)C1(Cl)CC1 (stereo not drawn) showed an LD50 (Colinus virginianus; acute, oral, diet, mortality) greater than 297 mg/kg-day, an LD50 (Colinus virginianus; acute, oral, mortality) greater than 2000 mg/kg and an NOEL (Colinus virginianus; duration: 20 weeks, oral, diet) of 14.8 mg/kg-day. The NOAEL (Rattus norvegicus; chronic, organ weight) was 1.1 mg/kg-day, the NOAEL (Rattus norvegicus; developmental, development) was 1 mg/kg-day and the NOEL (Anas platyrhynchos; duration: 20 weeks, oral, feed) was 63 mg/kg-day.

OC(Cc1ccccc1Cl)(Cn1[nH]cnc1=S)C1(Cl)CC1 (stereo not drawn) [Prothioconazole] was tested, and the LR50 (Typhlodromus pyri) was 18.7 g/ha, the LR50 (Aphidius rhopalosiphi) was 140 g/ha and the LC50 (Colinus virginianus; [1]) was > 5000 mg/kg and 4090 mg/kg. It also gave an LD50 (Colinus virginianus; [1]) greater than 1410 mg/kg-day, an LD50 (Colinus virginianus; acute, oral, mortality) greater than 2000 mg/kg and an NOEC (Colinus virginianus; duration: 20 weeks) of 173 mg/kg-day. The NOEL (Colinus virginianus; duration: 20 weeks) was 14.8 mg/kg-day, the NOEC (Colinus virginianus; duration: 22 weeks) was no less than 1000 mg/kg-day and the NOEL (Colinus virginianus; duration: 22 weeks) was no less than 86 mg/kg-day. It also gave an LD50 (Mus musculus; F) of 3460 mg/kg, an LD50 (Mus musculus; M) of 2240 mg/kg-day and an NOEC (Bibionidae) of 9.14 mg/L. It also gave an LD50 (Apis mellifera; dermal) greater than 200 µg/piece, an LD50 (Apis mellifera; oral, unspecified) greater than 71 µg/piece and an NOEC (Daphnia magna) of 0.56 mg/L. The LD50 (Rattus norvegicus; F) was 2510 mg/kg-day, the LD50 (Rattus norvegicus; M/F) was greater than 6200 mg/kg-day and the LD50 (Rattus norvegicus; M) was 2810 mg/kg-day. It also gave an NOAEL (Rattus norvegicus; chronic, duration: 2 years, organ weight) of 5 mg/kg-day, an NOAEL (Rattus norvegicus; developmental, development) of 20 mg/kg-day and an LC50 (Oncorhynchus mykiss; acute, mortality) of 1.83 µg/mL (≈ 5.32 µM). It also gave an NOEC (Oncorhynchus mykiss; chronic/long-term, other) of 0.308 mg/L, an NOAEL (Canidae) of 5 mg/kg-day and an LC50 (Tagia sp.; acute, mortality) greater than 1000 mg/kg. It also gave an NOEC (Tagia sp.; chronic/long-term) of 1.33 mg/kg, an NOEC (Folsomia candida) of 64 mg/kg and an NOEC (Anas platyrhynchos; duration: 20 weeks) of no less than 500 mg/kg. For the same compound, the NOEL (Anas platyrhynchos; duration: 20 weeks) was 63 mg/kg-day, the NOEC (Anas platyrhynchos; duration: 21 weeks) was 700 mg/kg and the NOEL (Anas platyrhynchos; duration: 21 weeks) was 78 mg/kg-day. For the same compound, the LD50 (Anas platyrhynchos; short-term, duration: 5 days, oral, feed, mortality) was greater than 2460 mg/kg-day and the LC50 (Anas platyrhynchos; short-term, duration: 5 days, oral, feed, reproduction) was greater than 5000 mg/kg.
